Converted amounts (≈) assume the structure as drawn.
Legend:
[1] = physchem; details: 25 °C, pH 7, aqueous buffer
[2] = solubility in water; details: 25 °C
[3] = pH 7, 25° C.; 'known to be'; cited from earlier work

CC1C(O)C=C(C(=O)O)CC1O (stereo not shown) [Compound (1)]
solubility [1]: ≥ 50 mg/mL

CC1C(O)CC(O)(C(=O)O)CC1O (stereo not shown) [Compound (2)]
solubility ([2]; pH 7, aqueous buffer): ≥ 50 mg/mL

Cc1ccc(C(=O)O)cc1 [p-toluic acid]
solubility in water [3]: 0.3 mg/mL (≈ 2.2 mM) | solubility ([2]; pH 0, aqueous buffer): ≤ 0.1 mg/mL

Source: patent US10125075B2, “P-toluic acid production method” (TORAY INDUSTRIES, INC., priority 2015, dated 2018)
